One substance from patent US7622128B2, “Porphyromonas gingivalis 1435/1449 LPS as an immune modulator” (priority 2005, dated 2009) can be followed below.

The assay concerns mouse bone marrow cells. Briefly: Activation of bone marrow cells from TLR knockout mice (intracellular TNF-α staining, FACS). Type of assay: cell-based. To be noted: TLR2−/−, TLR4−/− and TLR2/4−/− cells. On the procedure:
The ability of this P. gingivalis LPS preparation to activate mouse bone marrow cells obtained from TLR2^−/−, TLR4^−/−, and TLR2/4^−/− knockout mice was examined to determine if endogenous TLR2 and TLR4 were utilized. Activation was determined by intracellular TNF-α staining and fluorescence-activated cell sorter analysis.

Pam3CSK4: the “TLR usage in bone marrow cells of knockout mice” value is given as “utilized their respective cognate TLR”.
